# From PubChem BioAssay AID2033 (NMMLSC, 2009)
# Target: Ras-related protein Rab-2A (Canis lupus familiaris) (UniProt P61105)
# Assay: fluorescent GTP competition at wildtype Rab2A – biochemical, multiplex dose response, Bodipy-FL-GTP, flow cytometry, SAR follow-up (AID 2033)
# Details: GST-Rab2 beads, Bodipy-FL-GTP binding, Ki calculated from EC50
# Ras-related protein Rab-2A (Canis lupus familiaris), sequence (P61105 whole entry, looked up): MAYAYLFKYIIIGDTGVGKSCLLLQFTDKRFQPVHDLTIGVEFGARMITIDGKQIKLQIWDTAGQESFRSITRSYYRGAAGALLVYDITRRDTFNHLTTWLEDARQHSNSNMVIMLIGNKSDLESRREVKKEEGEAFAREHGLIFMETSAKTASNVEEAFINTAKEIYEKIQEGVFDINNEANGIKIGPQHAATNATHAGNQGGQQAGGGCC
row,SMILES,Ki [nM]
1,Cc1ccc(C)c(N2CCN(C(=O)CCc3nc(-c4cccc(Br)c4)no3)CC2)c1,230
2,COc1ccc(-c2ccc(CCC(=O)N3CCN(c4cc(C)ccc4C)CC3)[nH]2)cc1,330
3,COc1ccc(-c2noc(CCC(=O)N3CCN(c4cc(C)ccc4C)CC3)n2)cc1,160
4,Cc1cccc(-c2noc(CCC(=O)N3CCN(c4cc(C)ccc4C)CC3)n2)c1,80
5,Cc1ccc(C)c(N2CCN(C(=O)CCc3nc(-c4cccc(Cl)c4)no3)CC2)c1,180
6,Cc1ccc(C)c(N2CCN(C(=O)CCc3nc(-c4ccc(Cl)cc4)no3)CC2)c1,110
7,COc1ccc(-c2noc(CCC(=O)N3CCN(c4ccccc4OC)CC3)n2)cc1,80
8,Cc1ccc(C)c(N2CCN(C(=O)CCc3nc(-c4ccccc4)no3)CC2)c1,50
9,Cc1ccc(C)c(N2CCN(C(=O)CCc3nc(-c4ccccc4Br)no3)CC2)c1,200
10,COc1ccc(-c2noc(CCC(=O)N3CCN(c4cccc(C)c4C)CC3)n2)cc1,150
11,COc1ccc(-c2cc(CCC(=O)N3CCN(c4cc(C)ccc4C)CC3)on2)cc1,160
12,COc1ccc(-c2noc(CCC(=O)N3CCN(c4ccccc4C(F)(F)F)CC3)n2)cc1,130
13,COc1ccc(-c2noc(CCC(=O)N3CCN(c4ccccc4C)CC3)n2)cc1,160

# More lines, in order of falling Ki, values ahead:
row,Ki [nM],SMILES
1,1030,COc1ccc(-c2noc(CCCC(=O)N3CCN(c4cc(C)ccc4C)CC3)n2)cc1
2,960,COc1ccc(-c2ccc(CCC(=O)N3CCN(c4cc(C)ccc4C)CC3)o2)cc1
3,540,COc1ccc(-c2noc(CCC(=O)N3CCN(c4cccc(Cl)c4)CC3)n2)cc1
4,410,COc1ccc(-c2noc(CCC(=O)N3CCN(c4cccc(OC)c4)CC3)n2)cc1
5,260,Cc1ccc(-c2noc(CCC(=O)N3CCN(c4cc(C)ccc4C)CC3)n2)cc1
6,250,COc1cccc(-c2noc(CCC(=O)N3CCN(c4cc(C)ccc4C)CC3)n2)c1
7,210,COc1ccc(-c2noc(CCC(=O)N3CCN(c4ccccc4Br)CC3)n2)cc1
8,190,Cc1ccc(C)c(N2CCN(C(=O)CCc3nc(-c4ccc(Br)cc4)no3)CC2)c1
9,160,COc1ccc(-c2noc(CCC(=O)N3CCC(c4cc(C)ccc4C)CC3)n2)cc1
10,160,COc1ccc(-c2ccc(CCC(=O)N3CCN(c4cc(C)ccc4C)CC3)s2)cc1
11,150,COc1ccc(-c2noc(CCC(=O)N3CCN(c4ccccc4Cl)CC3)n2)cc1
12,110,Cc1ccc(C)c(N2CCN(C(=O)CCc3nc(-c4ccccc4C)no3)CC2)c1
13,60,Cc1ccc(C)c(N2CCN(C(=O)CCc3nc(-c4ccccc4F)no3)CC2)c1
14,50,COc1ccc(-c2noc(CCC(=O)N3CCN(c4ccc(C)cc4)CC3)n2)cc1
15,50,COc1ccc(-c2noc(CCC(=O)N3CCN(c4ccccc4F)CC3)n2)cc1
16,20,Cc1ccc(C)c(N2CCN(C(=O)CCc3nc(-c4ccc(F)cc4)no3)CC2)c1
